Among the data in patent publication US20080070946A1, “Hydroxymethylbenzothiazoles Amides” (AstraZeneca AB, priority 2004, published 2008) are IC50 and Hepatocyte intrinsic clearance values, retold here.

The target of one data set is T1, hVR1 (Homo sapiens, UniProt Q8NER1).
T1 construct: expressed in transfected cells
Briefly: hVR1 FLIPR (Fluorometric Image Plate Reader) screening assay, IC50 determination. The data set is classed as cell-based. As to conditions: CHO cells stably expressing hVR1. The protocol: 1. hVR1 FLIPR (Fluorometric Image Plate Reader) Screening Assay
Transfected CHO cells, stably expressing hVR1 (15,000 cells/well) are seeded in 50 ul media in a black clear bottom 384 plate (Greiner) and grown in a humidified incubator (37° C., 2% CO2), 24-30 hours prior to experiment.
Subsequently, the media is removed from the cell plate by inversion and 2 μM Fluo-4 is added using a multidrop (Labsystems). Following the 40 minutes dye incubation in the dark at 37° C. and 2% CO2, the extracellular dye present is washed away using an EMBLA (Scatron), leaving the cells in 40 ul of assay buffer (1× HBSS, 10 mM D-Glucose, 1 mM CaCl2, 10 mM HEPES, 10×7.5% NaHCO3 and 2.5 mM Probenecid).
FLIPR Assay—IC50 Determination Protocol
For IC50 determinations the fluorescence is read using FLIPR filter 1 (em […]). A cellular baseline recording is taken for 30 seconds, followed by a 20 μl addition of 10, titrated half-log concentrations of the test compound, yielding cellular concentration ranging from 3 μM to 0.1 nM. Data is collected every 2 seconds for a further 5 minutes prior to the addition of a VR1 agonist solution: either 50 nM solution of capsaicin or MES (2-[N-morpholino]ethanesulfonic acid) buffer (pH 5.2), by the FLIPR pipettor. The FLIPR continues to collect data for a further 4 minutes. Compounds having antagonistic properties against the hVR1 will inhibit the increase in intracellular calcium in response to the capsaicin addition. This consequently leading to a reduction in fluorescence signal and providing a reduced fluorescence reading, compared with no compound, buffer controls. Data is exported by the FLIPR program as a sum of fluorescence calculated under the curve upon the addition of capsaicin. Maximum inhibition, Hill slope and IC50 data for each compound are generated.

Data set [1] can be described thus: Metabolic stability in rat hepatocytes (intrinsic clearance). In kind it is in vitro ADME. The note with it: male, Sprague-Dawley, freshly isolated rat hepatocytes, read-out: rClint hep. Here is the method:
Metabolic Stability in Rat Hepatocytes
Cells source: in house fresh isolated rat hepatocytes from male sprague-Dawley.
1 μM of compound incubated in Krebs-Heinsleit buffer with 1×10^6 cells in 37° C. for 0, 15, 30, 60 and 90 min. A total volume of each incubation was 100 μL containing 0.1% DMSO. The reaction was stopped by adding 100 μL acetonitrile.
After reaction was stopped. The sample was centrifuged at 1900 g for 5 min. Supernatant was transferred to a clean tube for analysis.

T1 sequence (Q8NER1 whole entry): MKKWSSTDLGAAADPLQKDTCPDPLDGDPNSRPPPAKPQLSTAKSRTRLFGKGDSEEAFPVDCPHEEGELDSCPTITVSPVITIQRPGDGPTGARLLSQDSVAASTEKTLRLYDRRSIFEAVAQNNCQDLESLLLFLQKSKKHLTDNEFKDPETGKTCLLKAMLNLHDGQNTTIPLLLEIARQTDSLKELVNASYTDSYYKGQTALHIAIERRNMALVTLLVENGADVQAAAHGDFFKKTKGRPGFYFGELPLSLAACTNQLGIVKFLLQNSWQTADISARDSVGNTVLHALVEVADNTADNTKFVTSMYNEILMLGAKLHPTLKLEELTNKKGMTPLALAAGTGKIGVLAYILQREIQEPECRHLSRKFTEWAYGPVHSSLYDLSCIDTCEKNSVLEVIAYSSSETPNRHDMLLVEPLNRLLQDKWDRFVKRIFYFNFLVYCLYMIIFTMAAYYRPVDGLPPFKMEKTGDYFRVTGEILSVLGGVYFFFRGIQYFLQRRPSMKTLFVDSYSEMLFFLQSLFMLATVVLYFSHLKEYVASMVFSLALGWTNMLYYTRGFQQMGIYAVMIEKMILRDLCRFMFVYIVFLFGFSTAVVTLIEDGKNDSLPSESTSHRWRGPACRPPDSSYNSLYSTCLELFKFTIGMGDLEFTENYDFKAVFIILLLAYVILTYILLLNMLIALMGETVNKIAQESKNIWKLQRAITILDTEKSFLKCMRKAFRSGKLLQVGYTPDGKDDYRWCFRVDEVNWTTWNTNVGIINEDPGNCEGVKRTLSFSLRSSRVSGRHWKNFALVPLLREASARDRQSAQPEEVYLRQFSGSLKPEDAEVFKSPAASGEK

On hVR1 (agonist capsaicin), `Cc1cc(OC(C)C)ccc1C(=O)Nc1ccc2sc(CO)nc2c1F` [Example 40, N-[4-fluoro-2-(hydroxymethyl)-1,3-benzothiazol-5-yl]-4-isopropoxy-2-methylbenzamide] registered an IC50 of 67 nM. For the same molecule, in data set [1], the Hepatocyte intrinsic clearance at 1 μM came to 11.8 µL/min/mg.
As for `Cc1nc(C(F)(F)F)ccc1C(=O)Nc1ccc2sc(CO)nc2c1F` [Example 41, N-[4-fluoro-2-(hydroxymethyl)-1,3-benzothiazol-5-yl]-2-methyl-6-(trifluoromethyl)nicotinamide], the IC50 at hVR1 (agonist capsaicin) turned out to be 1950 nM.
The same measure, in the same setting: the same measure for `O=C(Nc1ccc2sc(CO)nc2c1)c1ccc(OC(F)(F)C(F)F)cc1` [Example 5, N-[2-(hydroxymethyl)-1,3-benzothiazol-5-yl]-4-(1,1,2,2-tetrafluoroethoxy)benzamide]: 8 nM.
In turn, `Cc1cc(OC(C)(C)C)ccc1C(=O)Nc1ccc2sc(CO)nc2c1` [Example 23, 4-tert-butoxy-N-[2-(hydroxymethyl)-1,3-benzothiazol-5-yl]-2-methylbenzamide] returned an IC50 at hVR1 (agonist capsaicin) of 59 nM. In addition, the Hepatocyte intrinsic clearance at 1 μM in data set [1] stood at 22 µL/min/mg.
The molecule `O=C(Nc1ccc2sc(CO)nc2c1)c1ccc(C(F)(F)F)nc1` [Example 8, N-[2-(hydroxymethyl)-1,3-benzothiazol-5-yl]-6-(trifluoromethyl)nicotinamide] displayed an IC50 at hVR1 (agonist pH 5.2 buffer) of 417 nM.
With `O=C(Nc1ccc2sc(CO)nc2c1)c1ccc(C2CCCCC2)cc1` [Example 6, 4-Cyclohexyl-N-[2-(hydroxymethyl)-1,3-benzothiazol-5-yl]benzamide], the IC50 on hVR1 (agonist capsaicin) was 23 nM.
On hVR1 (agonist capsaicin), `O=C(Nc1ccc2sc(CO)nc2c1)c1ccc(N2CCCCC2)nc1` [Example 9, N-[2-(hydroxymethyl)-1,3-benzothiazol-5-yl]-6-piperidin-1-ylnicotinamide] yielded an IC50 of 86 nM.
The same measure, in the same setting: the same measure for `O=C(Nc1ccc2sc(CO)nc2c1)c1ccc(C(F)(F)F)c(F)c1` [Example 7, 3-Fluoro-N-[2-(hydroxymethyl)-1,3-benzothiazol-5-yl]-4-(trifluoromethyl)benzamide]: 4 nM.
On to `CN(C)c1ccc(C(=O)Nc2ccc3sc(CO)nc3c2)c2ccccc12` [Example 10, 4-(dimethylamino)-N-[2-(hydroxymethyl)-1,3-benzothiazol-5-yl]-1-naphthamide], for which the IC50 at hVR1 (agonist capsaicin) turned out to be 54 nM. Moreover, in data set [1], the Hepatocyte intrinsic clearance at 1 μM is 14 µL/min/mg.
On the same counts, the results for `Cc1cc(OC(C)C)ccc1C(=O)Nc1ccc2sc(CO)nc2c1` [Example 24, N-[2-(hydroxymethyl)-1,3-benzothiazol-5-yl]-4-isopropoxy-2-methylbenzamide] are 47 nM and 10 µL/min/mg.
On hVR1 (agonist capsaicin), `O=C(Nc1ccc2sc(CO)nc2c1F)c1ccc(OCC(F)(F)F)nc1` [Example 43, N-[4-fluoro-2-(hydroxymethyl)-1,3-benzothiazol-5-yl]-6-(2,2,2-trifluoroethoxy)nicotinamide] came in with an IC50 of 489 nM.
Molecule `O=C(Nc1ccc2sc(CO)nc2c1F)c1ccc(C(F)(F)F)nc1` [Example 42, N-[4-fluoro-2-(hydroxymethyl)-1,3-benzothiazol-5-yl]-6-(trifluoromethyl)nicotinamide] gave an IC50 on hVR1 (agonist capsaicin) of 904 nM.

One may read the IC50 as the point on the concentration scale where inhibition reaches its midpoint. Read a low IC50 as inhibition by little substance.
